Measurements as given in patent US20240207141A1, “PEPTIDE HAVING REPARATIVE DENTIN-REGENERATING ACTIVITY AND USE THEREOF” (SEOUL NATIONAL UNIVERSITY R&DB FOUNDATION, priority 2022, published 2024).
No end group written: not given here.

Columns and labels:
rat pulp exposure model = assay: Rat tooth pulp exposure model, histologic analysis (H&E) of inflammatory response and hard tissue formation; format: in vivo
Method: Seven-week-old male Sprague-Dawley rats were purchased from the OrientBio after approval from the Institutional Animal Care and Use Committee of Seoul National University (No. SNU-180109-2) was obtained. […] Resin cement (Rely X U-200, 3M ESPE, MN, USA) was used as the final restoration in all experimental groups.
Specifically, the rats were anesthetized by the intraperitoneal injection of 31.25 mg/kg tiletamine/zolazepam and 8.75 mg/kg xylazine. After ascertaining the general anesthesia, the oral cavity was opened with a customized wire to expose the lower first molars. After cleaning and sanitizing with both 3% H2O2 and a 10% Betadine-soaked cotton, the center of the occlusal surface was carefully punctured using a #¼ round bur (0.5 mm in diameter) with a high-speed hand piece. MTA (ProRoot MTA, Dentsply Sirona, York, PA, USA) was mixed according to the manufacturer's instruction and the mixture was applied to the exposed pulp. […] The punctured sites were covered with resin cement after the application of MTA or the collagen sponge. In the Resin group, resin cement was directly applied to the punctured site. The sharp cusp tips of the upper molar and lower first molar were grinded using a football shaped diamond bur in order to prevent tooth fractures by mastication.
Rats were histologically analyzed 2 and 4 weeks after pulp exposure surgery. Whole mandibles were fixed f in 4% paraformaldehyde at 4° ° C. for 24 hours. For histological staining, the specimens were decalcified with 12% EDTA for 4 weeks and embedded in paraffin. […] Each sample was evaluated and scored for inflammatory response and hard tissue formation according to the criteria presented in [Table 2] below.

[1] = tested on: human dental pulp cells (hDPCs); assay: Cell viability assay of hDPCs (water-soluble tetrazolium salt); format: cell-based; conditions: 50, 100 and 200 μg/ml, 24 or 48 hours
Method: Human dental pulp cells (hDPCs) were collected from the patient's third molars after patient consent and approval from the Institutional Review Board (IRB) of Seoul National University Dental Hospital (IRB No. CRI19007) were obtained. The hDPCs were passaged three times in Dulbecco's modified Eagle's medium (DMEM; Gibco BRL, Carlsbad, CA, USA) supplemented with 10% fetal bovine serum (FBS) and 1% penicillin/streptomycin (10,000 U/ml penicillin, 10,000 μg/ml streptomycin; Gibco, Paisley, Scotland). In order to induce odontogenic differentiation, the hDPCs were then cultured using DMEM supplemented with 10% FBS, 1% penicillin/streptomycin, 10 mM β-glycerophosphate, 200 μM ascorbic acid, and 0.1 μM dexamethasone.
The viability of hDPCs in the presence of VnP-16 was investigated using an Cytox Cell Viability Assay Kit (DoGenBio, Seoul, Korea). A 96-well culture plate was treated with 50, 100 and 200 μg/ml VnP-16, and then 1.5×10^4 cells were plated into each well, and incubated for 24 or 48 hours at 37° C. The water-soluble tetrazolium salt reagent ([…] ) was added to each well, and the plate was incubated at 37 °C for 2 hours. Finally, absorbance at 450 nm was measured using a microplate reader (Epoch2, Bio-Tek, VT, USA).

[2] = tested on: human dental pulp cells (hDPCs); assay: hDPCs cell spreading assay on coated plates; format: cell-based; conditions: immobilized on plates (vitronectin 0.26 μg/cm2, peptides 10.5 μg/cm2), 3 hours
Method: In addition, for the cell spreading assay, hDPCs (3×10^4 cells/250 μL) were incubated at 37° ° C. for 3 hours on each peptide-coated plate in the same manner as above. The attached cells were fixed with 10% formalin and stained with 0.5% crystal violet for 1 hour. Then, the plates were gently washed three times with PBS, and then the degree of cell spreading was assessed by measuring the surface area of the cells using Image Pro Plus software (version 4.5; Media Cybernetics, Silver Spring, MD, USA).

[3] = tested on: human dental pulp cells (hDPCs); assay: hDPCs cell attachment assay on coated plates; format: cell-based; conditions: immobilized on plates (vitronectin 0.26 μg/cm2, peptides 10.5 μg/cm2), 1 hour
Method: First, for the cell attachment assay, 48-well culture plates were coated with human plasma vitronectin (0.26 μg/cm2) at 4° C. for 24 hours. The SP and VnP-16 (10.5 μg/cm2) were also coated on the plates by drying at room temperature for 24 hours. […] The peptide-coated plates were blocked with 1% heat-inactivated bovine serum albumin (BSA) in phosphate-buffered saline (PBS) at 37° ° C. for 1 hour, and then washed with PBS. The hDPCs (5×10^4 cells/250 μL) were added to each plate and incubated at 37° ° C. for 1 hour, and then unattached cells were removed by rinsing the plates twice with PBS. The attached cells were fixed with 10% formalin for 15 minutes and stained with 0.5% crystal violet for 1 hour. The plates were then gently washed three times with double-distilled water. Afterwards, the contents of each well were solubilized in 2% sodium dodecyl sulfate for 5 minutes, and then absorbance at 570 nm was measured using a microplate reader.

[4] = tested on: human dental pulp cells (hDPCs); assay: Scratch wound migration assay; format: cell-based; conditions: vitronectin 1.25 μg/ml, VnP-16 50 μg/ml; 0, 24 and 48 hours
Method: In order to evaluate the migration ability and wound healing ability of hDPCs, the scratch assay was used. The hDPCs were plated in a 24-well plate and incubated in complete medium until 80% confluence. Then, the cells were passaged in serum-free medium for 24 hours, and then stimulated by scratching with a 200 μl pipette tip. After PBS washing to remove cell debris, the cultures were treated with vehicle (10% DMSO), vitronectin (1.25 μg/ml), SP (50 μg/ml), or VnP-16 (50 μg/ml). Pictures were taken using a microscope (Nikon, Tokyo, Japan) at 0, 24 and 48 hours after treatment. The data were analyzed using Image Pro Plus software (version 4.5; Media Cybernetics, MD, USA) to compare the percentage of scratch closure from 0 hour to 48 hours time point. The percentage of: scratch closure was calculated by the following equation: Scratch closure %=[A (0)−A(t)/A(0)]×100. Wherein the scratch area at time zero is “A (0)”; and the area after the incubation time (t) is “A(t)”. The scratch wound migration assay was performed in triplicate.

Molecule: FVWRQFYKYEKG [SP, scrambled peptide used as a negative control]
- newly formed mineralized tissues at the pulp-exposed sites (rat pulp exposure model; 2 weeks after pulp exposure surgery): hardly detected
- hard tissue formation (rat pulp exposure model; 4 weeks after pulp exposure surgery): showed hard tissue formation
- quality of the reparative dentin (rat pulp exposure model; 4 weeks after pulp exposure surgery, H&E): non-tubular and large cell-inclusion structure

Molecule: RVYFFKGKQYWE-NH2 [VnP-16]
- cytotoxicity to hDPCs (cell viability) [1]: no cytotoxicity

B1: vitronectin: human plasma vitronectin purchased from Millipore, used as a positive control (protein, UniProt P04004 20-478, looked up)
Vitronectin: DQESCKGRCTEGFNVDKKCQCDELCSYYQSCCTDYTAECKPQVTRGDVFTMPEDEYTVYDDGEEKNNATVHEQVGGPSLTSDLQAQSKGNPEQTPVLKPEEEAPAPEVGASKPEGIDSRPETLHPGRPQPPAEEELCSGKPFDAFTDLKNGSLFAFRGQYCYELDEKAVRPGYPKLIRDVWGIEGPIDAAFTRINCQGKTYLFKGSQYWRFEDGVLDPDYPRNISDGFDGIPDNVDAALALPAHSYSGRERVYFFKGKQYWEYQFQHQPSQEECEGSSLSAVFEHFAMMQRDSWEDIFELLFWGRTSAGTRQPQFISRDWHGVPGQVDAAMAGRIYISGMAPRPSLAKKQRFRHRNRKGYRSQRGHSRGRNQNSRRPSRATWLSLFSSEESNLGANNYDDYRMDWLVPATCEPIQSVFFFSGDKYYRVNLRTRRVDTVDPPYPRSIAQYWLGCPAPGHL
- cell spreading of hDPCs [2]: strongly promoted cell attachment and spreading
- cell attachment of hDPCs [3]: strongly promoted cell attachment and spreading
- wound migration of hDPCs (scratch closure) [4]: strongly promoted the wound migration
